23 compounds from ChEMBL document CHEMBL1122804, “Synthesis of imidazo[1,2-a]pyrazine derivatives with uterine-relaxing, antibronchospastic, and cardiac-stimulating properties” (1984) can be followed below.

One assay is filed under the species Cavia porcellus. Nature of the assay: Inhibition of the bronchospasm induced by histamine in guinea pig at the high concentration/dose. In kind it is functional.
Settings: not given
With `CCOC(=O)c1cn2cc(Br)nc(Br)c2n1`, the ED50 is >0.016 µM.

The next assay is filed under the species Cavia porcellus. Nature of the assay: Inhibition of the bronchospasm induced by histamine in guinea pigat the high concentration / dose.
Settings: not given
In kind it is functional.
`ClCc1cn2ccncc2n1`: the ED50 is >0.072 µM.

For the next assay, the species on record is Rattus norvegicus. Nature of the assay: Inhibition of the uterine smooth muscle contraction induced by histamine on the isolated rat uterus. In kind it is functional. The settings on record: read-out: ED50 (the source's name).
Turning to `c1cn2ccnc2cn1`, the EC50 amounted to 0.0016 µM.

The species named for a further assay is Rattus norvegicus. Nature of the assay: Inhibition of the uterine smooth muscle contraction induced by histamine on the isolated rat uterus at high dose. The settings on record: read-out: ED50 (the source's name). In kind it is functional.
Regarding `COC(=O)c1cn2ccncc2n1`, the EC50 is > 0.0024 µM.

The next assay is filed under the species Rattus norvegicus. Nature of the assay: Inhibition of the uterine smooth muscle contraction induced by histamine on the isolated rat uterus at high dose /concentration. In kind it is functional. The conditions noted are these: read-out: ED50 (the source's name).
Turning to `NC(=O)c1cn2cc(Br)nc(Br)c2n1`, the EC50 is 0.00033 µM.

For another assay, the species on record is Rattus norvegicus. Nature of the assay: Inhibition of the uterine smooth muscle contraction induced by histamine on the isolated rat uterus. In kind it is functional. The settings on record: read-out: ED50.
`CCOC(=O)c1[nH]c2nccnc2c1C`: the EC50 is 102 µM.
Regarding `Brc1cncc2nccn12`, the EC50 was found to be 290 µM.
Still for that read-out and setting: under `CCOC(=O)c1cn2cc(Br)nc(Br)c2n1` stands 150 µM; under `Brc1cn2ccnc2c(Br)n1`, 240 µM; under `N#Cc1cn2ccncc2n1`, 2380 µM.
As for `NC(=O)c1cn2ccncc2n1`, the EC50 worked out at 1500 µM.
On the same count and under the same terms, under `CCOC(=O)c1c(C)nc2cnccn12` stands 152 µM.
Same read-out and setting: under `ClCc1cn2ccncc2n1` stands 1400 µM.
`N#Cc1cn2c(Br)cncc2n1`: the EC50 is 780 µM.
The same measure, in the same setting: the same measure for `NC(=O)c1cn2c(Br)cncc2n1`: 410 µM; for `CCOC(=O)Cc1cn2cc(Br)nc(Br)c2n1`: 96 µM.
Still for that read-out and setting: under `CC(=O)c1c(Cl)nc2cnccn12` stands 880 µM; under `CCOC(=O)c1cn2ccncc2n1`, 1110 µM.
Still for that read-out and setting: the same measure for `Cc1cn2ccncc2n1`: 750 µM; for `CCOC(=O)c1cn2c(Br)cncc2n1`: 1020 µM; for `O=C(O)c1cn2ccncc2n1`: 1720 µM.
On to `OCc1cn2ccncc2n1`, for which the EC50 amounted to 2700 µM.
For `Cn1c(=O)c2nc[nH]c2n(C)c1=O` [THEOPHYLLINE], the EC50 turned out to be 900 µM.

For another assay, the species on record is Rattus norvegicus. Nature of the assay: Inhibition of the uterine smooth muscle contraction induced by histamine on the isolated rat uterus at high dose. In kind it is functional. The settings on record: read-out: ED50 (the source's name).
Regarding `Nc1nc2cnccn2c1Br`, the EC50 amounted to 0.34 nM.
Turning to `N#Cc1cn2cc(Br)nc(Br)c2n1`, the EC50 stood at 0.09 nM.
